Data as given in patent US5525625A (priority 1995, dated 1996).

Columns and labels:
v-Raf/3Y1 [1] = test: Monolayer growth, v-Raf/3Y1; format: cell-based; conditions: v-Raf/3Y1, anchorage dependent
Experimental: (§1) Cells were plated into multi-well plates at 10 to 20,000 cells/mL. Forty-eight hours after seeding, compounds were added to the cell growth medium and incubation was continued for 2 additional days. Cells were then removed from the wells by incubation with trypsin and enumerated with a Coulter counter. Growth in soft-agar.

K562 [2] = test: Growth in soft-agar, K562; format: cell-based; conditions: Homo sapiens; K562, anchorage independent (soft agar clonogenicity)
Experimental: (§2) Cells were seeded into 35-mm dishes at 5 to 10,000 cells/dish using growth medium containing 0.3% agar. After chilling to solidify the agar, cells were transfered to a 37° C. incubator. After 7 to 10 days growth, visible colonies were manually enumerated with the aid of a dissecting microscope.

MEK [3] = target: T1, MEK (Homo sapiens, UniProt Q02750); format: biochemical; conditions: order of addition experiments
T1 sequence (Q02750 whole entry, the tested form may be a part): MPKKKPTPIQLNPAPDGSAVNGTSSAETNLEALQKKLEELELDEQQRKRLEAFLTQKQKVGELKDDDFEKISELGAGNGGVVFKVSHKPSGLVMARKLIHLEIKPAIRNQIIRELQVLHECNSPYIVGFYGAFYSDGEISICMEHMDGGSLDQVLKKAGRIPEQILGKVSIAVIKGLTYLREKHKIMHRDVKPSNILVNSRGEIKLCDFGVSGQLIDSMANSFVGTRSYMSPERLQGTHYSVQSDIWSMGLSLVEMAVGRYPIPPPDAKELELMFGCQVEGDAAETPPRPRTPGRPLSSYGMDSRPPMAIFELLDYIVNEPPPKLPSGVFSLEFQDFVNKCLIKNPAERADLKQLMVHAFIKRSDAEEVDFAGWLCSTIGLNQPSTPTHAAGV
Experimental: Incorporation of ^32 P into myelin basic protein (MBP) was assayed in the presence of a glutathione S-transferase fusion protein containing p44MAP kinase (GST-MAPK) and a glutathione S-transferase fusion protein containing p45MEK (GST-MEK). […] Compounds were assessed at 10 μM for ability to inhibit incorporation of ^32 P.
To ascertain whether compounds were inhibiting GST-MEK or GST MAPK, two additional protocols were employed. In the first protocol, compounds were added to tubes containing GST-MEK, followed by addition of GST-MAPK, MBP and [γ-^32 P]ATP. In the second protocol, compounds were added to tubes containing both GST-MEK and GST-MAPK, followed by MBP and [γ-^32 P]ATP.

[4] = target: E. coli histidine kinase NRII (Escherichia coli, UniProt P0AFB5); test: Kinase selectivity: E. coli histidine kinase NRII; format: biochemical; conditions: 50 μM concentration
E. coli histidine kinase NRII, sequence (P0AFB5 whole entry): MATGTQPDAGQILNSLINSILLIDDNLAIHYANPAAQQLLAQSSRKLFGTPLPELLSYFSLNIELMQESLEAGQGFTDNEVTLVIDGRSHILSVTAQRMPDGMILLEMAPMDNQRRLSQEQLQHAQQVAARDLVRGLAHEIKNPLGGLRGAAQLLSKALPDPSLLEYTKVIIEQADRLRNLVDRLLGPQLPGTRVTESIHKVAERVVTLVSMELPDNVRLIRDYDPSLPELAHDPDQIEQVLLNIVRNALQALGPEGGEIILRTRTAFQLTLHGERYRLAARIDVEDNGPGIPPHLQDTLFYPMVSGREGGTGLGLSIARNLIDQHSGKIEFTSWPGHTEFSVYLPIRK

K-Ras/Balb [5] = test: Monolayer growth, K-Ras/Balb; format: cell-based; conditions: Mus musculus, anchorage dependent
Experimental: as §1

MAP kinase [6] = test: Whole cell MAP kinase assay, PC-12 cells stimulated with NGF; format: cell-based; conditions: Rattus norvegicus, read-out: IC50, activation of MAP kinase in whole cells
Experimental: (§3) To determine if compounds were able to block activation of MAP kinase in whole cells, the following protocol was used: Cells were plated in multi-well plates and grown to confluence. Cells were then serum-deprived overnight. Cells were exposed to the desired concentrations of compound or vehicle (DMSO) for 30 minutes, followed by addition of a growth factor, e.g., PDGF (100 ng/mL). After a 5-minute treatment with the growth factor, cells were washed with PBS, then lysed in a buffer consisting of 70 mM NaCl, 10 mM HEPES (pH 7.4), 50 mM glycerol phosphate, and 1% Triton X-100. Lysates were clarified by centrifugation at 13,000×g for 10 minutes. Five micrograms of the resulting supernatants were incubated with 10 μg microtubule associated protein-2 (Map2) for 15 minutes at 30° C. in a final volume of 25 μL containing 50 mM Tris (pH 7.4), 10 mM MgCl2, 2 mM EGTA and 30 μM [γ-^32 P]ATP. Reactions were terminated by addition of Laemmli sample buffer. Phosphorylated Map2 was resolved on 7.5% acrylamide gels and incorporated radioactivity determined by autoradiography and subsequent excision of the bands followed by scintillation counting.

PI-3 kinase = test: Kinase selectivity: PI-3 kinase; format: biochemical; conditions: 50 μM concentration
EGFR/Swiss 3T3 [7] = test: Monolayer growth, EGFR/Swiss 3T3; format: cell-based; conditions: EGFR/Swiss 3T3, anchorage dependent
Experimental: as §1

K-Ras/NRK [8] = test: Growth in soft-agar, K-Ras/NRK; format: cell-based; conditions: anchorage independent (soft agar clonogenicity)
Experimental: as §2

[9] = target: NGFR (trk-A) Tyrosine kinase (Homo sapiens, UniProt P04629); test: Kinase selectivity: NGFR (trk-A) Tyrosine kinase; format: biochemical; conditions: 50 μM concentration
NGFR (trk-A) Tyrosine kinase, sequence (P04629 33-796, species assumed): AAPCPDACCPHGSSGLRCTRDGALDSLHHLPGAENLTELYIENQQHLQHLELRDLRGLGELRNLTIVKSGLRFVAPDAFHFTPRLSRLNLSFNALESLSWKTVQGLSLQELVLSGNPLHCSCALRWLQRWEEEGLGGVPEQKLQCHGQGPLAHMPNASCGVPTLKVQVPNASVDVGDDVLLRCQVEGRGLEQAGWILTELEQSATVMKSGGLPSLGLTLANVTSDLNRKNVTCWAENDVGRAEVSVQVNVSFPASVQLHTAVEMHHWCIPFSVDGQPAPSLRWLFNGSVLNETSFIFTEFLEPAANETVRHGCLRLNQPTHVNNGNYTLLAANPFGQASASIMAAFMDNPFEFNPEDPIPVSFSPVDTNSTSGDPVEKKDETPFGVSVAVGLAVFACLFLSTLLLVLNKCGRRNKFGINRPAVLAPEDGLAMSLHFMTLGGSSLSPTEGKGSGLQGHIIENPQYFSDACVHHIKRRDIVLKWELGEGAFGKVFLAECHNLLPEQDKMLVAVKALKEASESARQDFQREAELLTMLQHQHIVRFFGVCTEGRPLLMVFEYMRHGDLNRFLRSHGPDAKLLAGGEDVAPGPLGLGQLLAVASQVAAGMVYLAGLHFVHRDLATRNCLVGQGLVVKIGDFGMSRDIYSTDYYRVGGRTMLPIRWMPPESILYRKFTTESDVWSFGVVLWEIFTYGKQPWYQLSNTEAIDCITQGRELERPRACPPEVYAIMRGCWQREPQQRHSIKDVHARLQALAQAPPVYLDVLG

3T3-L1 adipocyte cells [10] = test: Insulin-stimulated synthesis of lipid; format: cell-based, murine; conditions: 10 μM concentration
EGFR Tyrosine kinase = EGFR Tyrosine kinase (Homo sapiens, UniProt P00533); test: Kinase selectivity: EGFR Tyrosine kinase; format: biochemical; conditions: 50 μM concentration
EGFR Tyrosine kinase, sequence (P00533 25-1210): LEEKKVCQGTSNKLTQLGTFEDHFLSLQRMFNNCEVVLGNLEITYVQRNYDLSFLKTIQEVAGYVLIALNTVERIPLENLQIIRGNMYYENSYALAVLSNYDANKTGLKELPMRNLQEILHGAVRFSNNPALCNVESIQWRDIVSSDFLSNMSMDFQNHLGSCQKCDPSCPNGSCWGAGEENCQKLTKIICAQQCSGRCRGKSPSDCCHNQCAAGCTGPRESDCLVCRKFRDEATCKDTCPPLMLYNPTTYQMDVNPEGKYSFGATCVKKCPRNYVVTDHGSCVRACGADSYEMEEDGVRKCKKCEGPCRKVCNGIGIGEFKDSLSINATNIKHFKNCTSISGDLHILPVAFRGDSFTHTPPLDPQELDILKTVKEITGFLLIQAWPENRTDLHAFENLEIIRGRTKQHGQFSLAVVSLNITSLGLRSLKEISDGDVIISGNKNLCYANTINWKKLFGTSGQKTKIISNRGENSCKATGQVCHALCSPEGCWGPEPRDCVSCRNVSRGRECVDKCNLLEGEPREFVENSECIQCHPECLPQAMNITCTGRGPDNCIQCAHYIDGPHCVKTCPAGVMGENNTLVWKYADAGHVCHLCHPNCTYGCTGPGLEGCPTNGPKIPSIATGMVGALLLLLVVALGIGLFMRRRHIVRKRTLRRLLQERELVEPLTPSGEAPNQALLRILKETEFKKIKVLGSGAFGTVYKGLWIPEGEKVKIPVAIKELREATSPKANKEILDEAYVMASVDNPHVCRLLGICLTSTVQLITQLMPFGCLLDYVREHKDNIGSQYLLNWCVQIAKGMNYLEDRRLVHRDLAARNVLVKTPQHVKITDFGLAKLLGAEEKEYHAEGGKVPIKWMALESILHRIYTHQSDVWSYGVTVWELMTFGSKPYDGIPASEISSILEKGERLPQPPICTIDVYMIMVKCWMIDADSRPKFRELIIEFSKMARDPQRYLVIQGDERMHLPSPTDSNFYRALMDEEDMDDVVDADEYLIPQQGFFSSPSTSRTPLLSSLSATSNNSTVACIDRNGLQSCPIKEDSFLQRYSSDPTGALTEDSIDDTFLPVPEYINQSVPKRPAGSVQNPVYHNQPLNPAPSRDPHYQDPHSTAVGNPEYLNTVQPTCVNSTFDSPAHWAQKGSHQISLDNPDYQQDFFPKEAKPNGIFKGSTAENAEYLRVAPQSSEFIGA

MEK [11] = target: T1, MEK; format: biochemical
[12] = test system: Protein kinase C (rat brain homogenate c-PKC mixture); test: Kinase selectivity: Protein kinase C; format: biochemical; conditions: 50 μM concentration
K-Ras/NRK [13] = test: Monolayer growth, K-Ras/NRK; format: cell-based; conditions: anchorage dependent
Experimental: as §1

RSV/RAT-1 [14] = test: Growth in soft-agar, RSV/RAT-1; format: cell-based; conditions: read-out: Agar Growth IC50
Experimental: as §2

K-Ras/Balb [15] = test: Growth in soft-agar, K-Ras/Balb; format: cell-based; conditions: Mus musculus, anchorage independent (soft agar clonogenicity)
Experimental: as §2

K-Balb 3T3 = test: 3H-Thymidine incorporation, PDGF-stimulated, K-Balb 3T3; format: cell-based; conditions: K-Balb 3T3, PDGF-stimulated
Experimental: (§4) Cells were plated in multi-well plates and grown to near confluence. The media was then removed and replaced with growth media containing 1% bovine serum albumin. After 24-hour serum starvation, compounds and specific growth factors were added and incubations continued for an additional 24 hours. During the final 2 hours, 3H-thymidine was added to the medium. To terminate the incubations, the medium was removed and cell layers washed twice with ice-cold phosphate-buffered saline. After the final wash, ice-cold 5% trichloroacetic acid was added and the cells incubated for 15 minutes at room temperature. The trichloro-acetic acid solution was then removed and the cell layer washed three times with distilled water. After the final wash, the cell layer was solubilized by addition of 2% sodium dodecylsulfate. Radioactivity in this solution was determined by scintillation counting.

v-Raf/3Y1 [16] = test: Growth in soft-agar, v-Raf/3Y1; format: cell-based; conditions: v-Raf/3Y1, anchorage independent (soft agar clonogenicity)
Experimental: as §2

PDGFRβ Tyrosine kinase = PDGFRβ Tyrosine kinase (Homo sapiens, UniProt P09619); test: Kinase selectivity: PDGFRβ Tyrosine kinase; format: biochemical; conditions: 50 μM concentration
PDGFRβ Tyrosine kinase, sequence (P09619 33-1106): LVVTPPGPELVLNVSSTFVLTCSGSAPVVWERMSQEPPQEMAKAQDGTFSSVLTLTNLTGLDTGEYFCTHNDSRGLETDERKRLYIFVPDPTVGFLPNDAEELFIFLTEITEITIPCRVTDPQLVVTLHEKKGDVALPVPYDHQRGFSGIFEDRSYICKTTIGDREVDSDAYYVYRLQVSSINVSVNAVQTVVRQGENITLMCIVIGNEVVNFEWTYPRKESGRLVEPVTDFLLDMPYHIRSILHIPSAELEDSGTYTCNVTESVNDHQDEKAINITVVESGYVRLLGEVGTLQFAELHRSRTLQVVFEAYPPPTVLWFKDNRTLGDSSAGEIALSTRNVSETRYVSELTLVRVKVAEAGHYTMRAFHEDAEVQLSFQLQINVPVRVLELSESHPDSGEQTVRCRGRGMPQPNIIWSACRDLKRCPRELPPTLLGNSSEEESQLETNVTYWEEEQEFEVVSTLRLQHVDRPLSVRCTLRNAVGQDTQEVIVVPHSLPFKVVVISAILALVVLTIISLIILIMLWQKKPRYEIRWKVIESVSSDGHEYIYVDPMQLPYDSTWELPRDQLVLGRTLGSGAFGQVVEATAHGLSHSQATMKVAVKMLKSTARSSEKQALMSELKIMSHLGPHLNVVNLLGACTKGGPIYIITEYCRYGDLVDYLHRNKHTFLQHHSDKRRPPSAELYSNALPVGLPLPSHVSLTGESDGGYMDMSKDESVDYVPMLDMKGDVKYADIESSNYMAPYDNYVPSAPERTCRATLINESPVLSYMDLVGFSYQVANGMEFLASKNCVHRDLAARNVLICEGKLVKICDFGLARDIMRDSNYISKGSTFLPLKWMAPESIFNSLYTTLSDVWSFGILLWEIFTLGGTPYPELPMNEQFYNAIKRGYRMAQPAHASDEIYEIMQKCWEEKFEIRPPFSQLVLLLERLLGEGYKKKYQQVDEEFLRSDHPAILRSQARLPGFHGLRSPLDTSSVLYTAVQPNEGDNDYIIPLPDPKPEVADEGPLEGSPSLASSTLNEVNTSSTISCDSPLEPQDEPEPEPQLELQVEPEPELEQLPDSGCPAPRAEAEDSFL

3T3-L1 adipocyte cells [17] = test: Insulin stimulated uptake of radiolabeled 2-deoxyglucose; format: cell-based, murine; conditions: 10 μM concentration
MAP kinase [18] = test: Whole cell MAP kinase assay, 3T3-L1 cells stimulated with insulin; format: cell-based, murine
Experimental: as §3, with “Cells” for “To determine if compounds were able to block activation of MAP kinase in whole cells, the following protocol was used: Cells were plated in multi-well plates and grown to confluence. Cells”, “buffer.” for “buffer. Phosphorylated Map2 was resolved on 7.5% acrylamide gels and incorporated radioactivity determined by autoradiography and subsequent excision of the bands followed by scintillation counting.”

3T3-L1 adipocyte cells [19] = test: Insulin-stimulated synthesis of glycogen; format: cell-based, murine; conditions: 10 μM concentration
Balb 3T3 = test: 3H-Thymidine incorporation, PDGF-stimulated, Balb 3T3; format: cell-based; conditions: Mus musculus; Balb 3T3, PDGF-stimulated
Experimental: as §4

RAF = RAF (Homo sapiens, UniProt P04049); test: Kinase selectivity: RAF; format: biochemical; conditions: 50 μM concentration
RAF, sequence (P04049 whole entry): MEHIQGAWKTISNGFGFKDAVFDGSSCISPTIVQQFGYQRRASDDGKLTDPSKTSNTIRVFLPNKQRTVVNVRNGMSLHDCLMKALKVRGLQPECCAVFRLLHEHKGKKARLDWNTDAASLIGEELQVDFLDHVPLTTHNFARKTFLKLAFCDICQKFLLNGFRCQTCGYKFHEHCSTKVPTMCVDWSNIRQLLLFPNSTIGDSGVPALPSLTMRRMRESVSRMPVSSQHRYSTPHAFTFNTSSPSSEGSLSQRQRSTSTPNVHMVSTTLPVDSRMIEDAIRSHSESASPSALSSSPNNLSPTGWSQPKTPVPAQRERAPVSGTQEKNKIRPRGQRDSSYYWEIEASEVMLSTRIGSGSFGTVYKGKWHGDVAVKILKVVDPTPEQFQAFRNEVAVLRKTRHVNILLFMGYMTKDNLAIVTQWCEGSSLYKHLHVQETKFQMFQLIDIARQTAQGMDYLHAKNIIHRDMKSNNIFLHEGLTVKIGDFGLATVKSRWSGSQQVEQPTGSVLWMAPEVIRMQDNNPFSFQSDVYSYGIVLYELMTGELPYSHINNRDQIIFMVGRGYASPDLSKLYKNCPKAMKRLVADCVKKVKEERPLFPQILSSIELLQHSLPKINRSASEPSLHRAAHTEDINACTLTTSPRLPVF

v-Src = v-Src (Rous sarcoma virus (strain Schmidt-Ruppin A), UniProt P00524); test: Kinase selectivity: v-Src; format: biochemical; conditions: 50 μM concentration
v-Src, sequence (P00524 2-526): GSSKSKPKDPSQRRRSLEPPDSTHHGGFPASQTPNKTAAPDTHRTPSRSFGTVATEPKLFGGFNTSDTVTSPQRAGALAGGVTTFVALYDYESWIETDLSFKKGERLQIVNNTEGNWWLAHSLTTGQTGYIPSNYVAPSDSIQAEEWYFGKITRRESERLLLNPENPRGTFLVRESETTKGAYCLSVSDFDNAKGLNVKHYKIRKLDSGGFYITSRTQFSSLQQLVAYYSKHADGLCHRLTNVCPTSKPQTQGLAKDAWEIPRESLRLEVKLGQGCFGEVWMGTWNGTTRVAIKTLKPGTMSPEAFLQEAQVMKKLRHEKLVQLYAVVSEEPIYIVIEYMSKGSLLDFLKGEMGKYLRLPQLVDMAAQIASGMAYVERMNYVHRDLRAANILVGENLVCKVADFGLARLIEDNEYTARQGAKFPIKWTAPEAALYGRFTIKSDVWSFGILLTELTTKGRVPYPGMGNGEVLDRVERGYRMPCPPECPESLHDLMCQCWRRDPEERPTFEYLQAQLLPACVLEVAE

EGFR/Swiss 3T3 [20] = test: Growth in soft-agar, EGFR/Swiss 3T3; format: cell-based; conditions: EGFR/Swiss 3T3, anchorage independent (soft agar clonogenicity)
Experimental: as §2

K562 [21] = test: Monolayer growth, K562; format: cell-based; conditions: Homo sapiens; K562, anchorage dependent
Experimental: as §1

RSV/RAT-1 [22] = test: Monolayer growth, RSV/RAT-1; format: cell-based; conditions: read-out: Monolayer Growth IC50
Experimental: as §1

MAP kinase [23] = test: In vitro MAP kinase assay; format: biochemical; conditions: 50 μM concentration
Experimental: Inhibitory activity was also confirmed in direct assays. For MAP kinase, 1 μg GST-MAPK was incubated with 40 μg MBP for 15 minutes at 30° C. in a final volume of 50 μL containing 50 mM Tris (pH 7.5), 10 μM MgCl2, 2 μM EGTA, and 10 μM [γ-^32 P]ATP. The reaction was stopped by addition of Laemmli SDS sample buffer and phosphorylated MBP resolved by electrophoresis on a 10% polyacrylamide gel. Radioactivity incorporated into MBP was determined by autoradiography, and subsequently by excision of the bands followed by scintillation counting.

COc1cccc(-c2cc(=O)c3ccccc3o2)c1N [invention compound, 2-(2-amino-3-methoxyphenyl)-4-oxo-4H-[1]benzopyran]
IC50 (v-Raf/3Y1 [1]): 50 µM | IC50 (K562 [2]): 60 µM | enzyme inhibited in the cascade (MEK or MAP kinase) (MEK [3]): inhibiting MEK and not MAP kinase | inhibition of E. coli histidine kinase NRII [4]: does not appreciably inhibit | IC50 (K-Ras/Balb [5]): 25 µM | IC50 (MAP kinase [6]): 7 µM | inhibition of PI-3 kinase (PI-3 kinase): does not appreciably inhibit | IC50 (EGFR/Swiss 3T3 [7]): > 100 µM | IC50 (K-Ras/NRK [8]): 2 µM | inhibition of NGFR (trk-A) Tyrosine kinase [9]: does not appreciably inhibit | effect on insulin-stimulated synthesis of lipid (3T3-L1 adipocyte cells [10]): does not affect | effect on insulin-stimulated synthesis of lipid (3T3-L1 adipocyte cells [10]; listed as compound): no effect | inhibition of EGFR Tyrosine kinase (EGFR Tyrosine kinase): does not appreciably inhibit | competition with ATP (kinetic analysis) (MEK [11]): not competitive with ATP | inhibition of Protein kinase C [12]: does not appreciably inhibit | IC50 (K-Ras/NRK [13]): 40 µM | IC50 (RSV/RAT-1 [14]): 60 µM | IC50 (K-Ras/Balb [15]): 1.5 µM | IC50 (K-Balb 3T3): 10 µM | IC50 (v-Raf/3Y1 [16]): 4.5 µM | inhibition of PDGFRβ Tyrosine kinase (PDGFRβ Tyrosine kinase): does not appreciably inhibit | effect on insulin stimulated uptake of radiolabeled 2-deoxyglucose (3T3-L1 adipocyte cells [17]): does not affect | effect on insulin stimulated uptake of radiolabeled 2-deoxyglucose (3T3-L1 adipocyte cells [17]; listed as compound): no effect | IC50 (MAP kinase [18]; Mus musculus, 3T3-L1 cells stimulated with insulin, read-out: IC50, activation of MAP kinase in whole cells): 3 µM | activation of insulin stimulated MAP kinase (MAP kinase [18]; murine 3T3-L1 adipocytes, insulin): does inhibit | effect on insulin-stimulated synthesis of glycogen (3T3-L1 adipocyte cells [19]): does not affect | effect on insulin-stimulated synthesis of glycogen (3T3-L1 adipocyte cells [19]; listed as compound): no effect | IC50 (Balb 3T3): 8 µM | inhibition of RAF (RAF): does not appreciably inhibit | inhibition of v-Src (v-Src): does not appreciably inhibit | IC50 (EGFR/Swiss 3T3 [20]): > 100 µM | IC50 (K562 [21]): > 100 µM | IC50 (RSV/RAT-1 [22]): > 100 µM | inhibition of MAP kinase (MAP kinase [23]): does not appreciably inhibit
